Data as given in publication PMC3317675 (International Journal of Molecular Sciences, 2012).

Tests used:
[1] = target: T1, mGAT2 (Mus musculus, UniProt P31649); experiment: [3H]GABA uptake inhibition, stable CHO cells; assay type: cell-based; parameters: gene Slc6a13; RIKEN FANTOM cDNA in pcDNA3; no tag mentioned
T1 sequence (P31649 1-602): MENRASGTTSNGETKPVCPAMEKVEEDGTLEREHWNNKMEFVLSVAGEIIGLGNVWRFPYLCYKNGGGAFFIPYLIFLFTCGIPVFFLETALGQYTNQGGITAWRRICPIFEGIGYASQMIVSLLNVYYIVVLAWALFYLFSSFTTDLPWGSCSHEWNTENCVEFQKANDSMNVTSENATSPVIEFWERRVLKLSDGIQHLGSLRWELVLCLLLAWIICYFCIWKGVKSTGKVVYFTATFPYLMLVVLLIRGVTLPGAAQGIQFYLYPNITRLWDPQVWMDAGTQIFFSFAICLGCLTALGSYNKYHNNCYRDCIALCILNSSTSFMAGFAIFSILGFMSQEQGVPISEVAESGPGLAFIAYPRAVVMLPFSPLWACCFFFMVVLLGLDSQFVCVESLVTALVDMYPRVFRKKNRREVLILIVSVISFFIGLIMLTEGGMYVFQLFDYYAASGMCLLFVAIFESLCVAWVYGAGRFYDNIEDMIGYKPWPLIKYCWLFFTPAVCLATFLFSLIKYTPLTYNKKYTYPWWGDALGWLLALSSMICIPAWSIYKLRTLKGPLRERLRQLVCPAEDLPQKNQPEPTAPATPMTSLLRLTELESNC

[2] = target: T2, mGAT3 (Mus musculus, UniProt P31650); experiment: [3H]GABA uptake inhibition, stable CHO cells; assay type: cell-based; parameters: gene Slc6a11; RIKEN FANTOM cDNA in pcDNA3; no tag mentioned
T2 sequence (P31650 1-627): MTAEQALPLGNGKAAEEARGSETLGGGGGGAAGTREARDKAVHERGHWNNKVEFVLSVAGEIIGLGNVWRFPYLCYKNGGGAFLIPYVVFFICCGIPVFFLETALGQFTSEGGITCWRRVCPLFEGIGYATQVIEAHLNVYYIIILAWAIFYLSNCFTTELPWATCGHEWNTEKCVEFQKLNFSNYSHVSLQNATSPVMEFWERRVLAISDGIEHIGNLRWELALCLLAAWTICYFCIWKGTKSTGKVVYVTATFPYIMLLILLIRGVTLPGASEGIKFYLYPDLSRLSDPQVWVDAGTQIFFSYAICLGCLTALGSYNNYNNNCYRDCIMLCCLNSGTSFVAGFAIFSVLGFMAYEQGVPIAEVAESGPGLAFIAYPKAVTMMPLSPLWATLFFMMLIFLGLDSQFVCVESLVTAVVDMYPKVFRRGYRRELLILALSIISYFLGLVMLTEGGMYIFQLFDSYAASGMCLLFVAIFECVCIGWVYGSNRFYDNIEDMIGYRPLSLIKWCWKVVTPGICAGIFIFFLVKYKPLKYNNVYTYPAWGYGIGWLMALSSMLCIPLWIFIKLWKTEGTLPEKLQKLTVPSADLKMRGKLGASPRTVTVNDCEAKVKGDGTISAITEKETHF

[3] = target: T3, mGAT1 (Mus musculus, UniProt P31648); experiment: [3H]GABA uptake inhibition, stable CHO cells; assay type: cell-based; parameters: gene Slc6a1; full-length ORF in pcDNA3; no tag mentioned
[4] = target: T1, mGAT2; experiment: cell-based; parameters: gene Slc6a13
Text: (§1) Those were designated CHO/mGAT1, CHO/mGAT2, CHO/mGAT3 and CHO/mBGT1. […] For uptake assays in cell lines stably expressing mouse GATs, CHO cells were transfected with cDNA using FuGENE6 transfection reagent according to the manufacturer’s directions, and subsequently cultured in the medium containing G418 to select positive clones.

[5] = target: T3, mGAT1; experiment: cell-based; parameters: gene Slc6a1
Text: as §1

[6] = target: T2, mGAT3; experiment: cell-based; parameters: gene Slc6a11
Text: as §1

[7] = target: T4, rSERT (Rattus norvegicus, UniProt P31652); experiment: [3H]5-HT uptake inhibition, stable CHO cells; assay type: cell-based
T4 construct: gene Slc6a4; previously cloned cDNA; no tag mentioned
T4 sequence (P31652 whole entry): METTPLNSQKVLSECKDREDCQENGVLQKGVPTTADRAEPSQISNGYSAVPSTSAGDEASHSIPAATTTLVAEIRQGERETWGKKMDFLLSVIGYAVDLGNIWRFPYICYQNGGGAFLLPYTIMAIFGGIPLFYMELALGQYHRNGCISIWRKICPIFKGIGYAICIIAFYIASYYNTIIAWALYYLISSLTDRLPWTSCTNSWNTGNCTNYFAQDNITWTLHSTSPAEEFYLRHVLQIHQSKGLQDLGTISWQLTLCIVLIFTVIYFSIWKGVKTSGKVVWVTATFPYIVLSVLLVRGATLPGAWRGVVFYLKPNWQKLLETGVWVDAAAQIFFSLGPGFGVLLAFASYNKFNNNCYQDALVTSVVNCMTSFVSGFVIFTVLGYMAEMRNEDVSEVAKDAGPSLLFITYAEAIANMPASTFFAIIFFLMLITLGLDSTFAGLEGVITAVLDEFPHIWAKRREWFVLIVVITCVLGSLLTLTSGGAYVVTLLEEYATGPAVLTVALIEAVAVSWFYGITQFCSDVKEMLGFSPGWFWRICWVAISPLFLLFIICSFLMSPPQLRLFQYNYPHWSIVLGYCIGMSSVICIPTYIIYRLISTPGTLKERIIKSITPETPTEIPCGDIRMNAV

| Structure (SMILES) | IC50 [1] [µM] | IC50 [2] [µM] | IC50 [3] [µM] | IC50 [4] [µM] | IC50 [5] [µM] | IC50 [6] [µM] | IC50 [7] [µM] |
| --- | --- | --- | --- | --- | --- | --- | --- |
| CNCCC=C1c2ccccc2CCc2ccccc21 [Nortriptyline] | 87.1 | 74.1 | 136 ± 21.9 | – | – | – | – |
| CN(C)CCCN1c2ccccc2CCc2ccccc21 [Imipramine] | 106 | 108 | 223 ± 58.5 | – | – | – | – |
| C[N+](C)(C)CC(=O)O [Betaine] | – | – | – | > 10000 | > 10000 | > 10000 | – |
| CNCCCN1c2ccccc2CCc2ccccc21 [Desipramine] | 123 | 80.3 | 268 ± 36.7 | – | – | – | – |
| NCCC(=O)O [β-Alanine] | – | – | – | 25 | > 300 | 18 | – |
| CC(CN(C)C)CN1c2ccccc2CCc2ccccc21 (stereo not shown) [Trimipramine] | 85.6 | 64.6 | 181 ± 72.9 | – | – | – | 5.89 |
| CN(C)CCC=C1c2ccccc2CCc2ccccc21 [Amitriptyline] | 45.8 | 61.5 | 101 ± 11.7 | – | – | – | – |
| CNCCCC1c2ccccc2C=Cc2ccccc21 [Protriptyline] | 77.2 | 113 | 167 ± 22.1 | – | – | – | – |
